Data set [1] is described as follows: Cytotoxicity against MDCK cells assessed as cell death after 2 days by MTT assay. The data set is classed as toxicity, cell-based, Canis lupus familiaris. The following applies: dog. On the technique in general: Tetrazolium dyes change colour on reduction, which living cells bring about.
The nature of data set [2]: Selectivity index, ratio of CC50 for MDCK cells to IC50 for Influenza A virus H5 subtype (A/Thailand/Kan353/2004(H5N1)) pseudovirus infected in MDCK cells co-infected with HA/HIV. The data set is classed as functional.
A short description of the next data set: cells. The following applies: Influenza A virus, MDCK.
Data set [3] deals with Influenza A virus (A/Vietnam/1194/2004(H5N1)). In words: (§1) Binding affinity to Influenza A virus A/Vietnam/1194/2004(H5N1) Hemagglutinin by surface plasmon resonance analysis. (SPR reads the build-up and loss of mass on a sensor chip optically.)
Data set [4] is described as follows: as §1.
The subject of data set [5] is Influenza A virus (A/Vietnam/1194/2004(H5N1)). In words: (§2) Binding affinity to influenza A virus A/Vietnam/1194/2004(H5N1) Hemagglutinin 2 subunit by surface plasmon resonance analysis.
Data set [6] in a line: as §2.

For orientation: CC50 means the concentration that lowers cell viability or growth by half. Broadly, the IC50 is the concentration that inhibits the measured activity by half. The low end stands for greater potency in that assay, the high end for weaker potency in that assay. For orientation: Kd means the concentration at which binding is half-saturated. A high value points to lower affinity.

SMILES strings stand for the structures.

`COC(=O)[C@]12CCC(C)(C)C[C@H]1C1=CC(=O)[C@@H]3[C@@]4(C)CC[C@H](O[C@@H]5O[C@H](CO)[C@@H](O[C@@H]6O[C@@H](C)[C@H](O)[C@@H](O)[C@H]6O)[C@H](O)[C@H]5O[C@@H]5O[C@@H](C)[C@H](O)[C@@H](O)[C@H]5O)C(C)(C)[C@@H]4CC[C@@]3(C)[C@]1(C)CC2`: in data set [1], the CC50 at 48 h came to 17.9 µM. The “Ratio CC50/IC50” value in data set [2] is 3.1. Besides, the IC50 in “cells” worked out at 5.8 µM.
As for `O=C(NCCN1CCCCC1)c1cc(F)cc(C(F)(F)F)c1`, the “Ratio CC50/IC50” value in data set [2] came to 332.3.
As to `COC(=O)[C@@]1(C)CC[C@]2(C)CC[C@]3(C)C(=CC(=O)[C@@H]4[C@@]5(C)CC[C@H](O[C@@H]6O[C@H](CO)[C@@H](O[C@@H]7O[C@@H](C)[C@H](O)[C@@H](O)[C@H]7O)[C@H](O)[C@H]6O[C@@H]6O[C@@H](C)[C@H](O)[C@@H](O)[C@H]6O)C(C)(C)[C@@H]5CC[C@]43C)[C@@H]2C1`, the CC50 at 48 h in data set [1] came to 33.8 µM. In addition, the “Ratio CC50/IC50” value in data set [2] worked out at 8.3. In “cells”, the midpoint of inhibition, the IC50, lay at 4.1 µM.
The matching figures for `COC[C@]12CCC(C)(C)C[C@H]1C1=CC[C@@H]3[C@@]4(C)CC[C@H](O[C@@H]5O[C@H](CO)[C@@H](O[C@@H]6O[C@@H](C)[C@H](O)[C@@H](O)[C@H]6O)[C@H](O)[C@H]5O[C@@H]5O[C@@H](C)[C@H](O)[C@@H](O)[C@H]5O)C(C)(C)[C@@H]4CC[C@@]3(C)[C@]1(C)CC2`: 16.8 µM, less than 1 and greater than 20 µM.
The matching figures for `C[C@@H]1O[C@@H](O[C@H]2[C@H](O[C@H]3CC[C@]4(C)[C@H]5CC=C6[C@@H]7CC(C)(C)CC[C@]7(C(=O)OCc7ccccc7)CC[C@@]6(C)[C@]5(C)CC[C@H]4C3(C)C)O[C@H](CO)[C@@H](O[C@@H]3O[C@@H](C)[C@H](O)[C@@H](O)[C@H]3O)[C@@H]2O)[C@H](O)[C@H](O)[C@H]1O`: 75.4 µM, 13.4 and 5.62 µM.
`C[C@@H]1CC[C@@]2(OC1)O[C@H]1C[C@H]3[C@@H]4C[C@H](O)[C@H]5C[C@@H](O[C@@H]6O[C@H](CO)[C@@H](O[C@@H]7O[C@@H](C)[C@H](O)[C@@H](O)[C@H]7O)[C@H](O)[C@H]6O[C@@H]6O[C@@H](C)[C@H](O)[C@@H](O)[C@H]6O)CC[C@]5(C)[C@H]4CC[C@]3(C)[C@H]1[C@@H]2C`: the CC50 at 48 h in data set [1] was 18.3 µM. In addition, in data set [2], the “Ratio CC50/IC50” value is 2.3. For the same compound, the IC50 in the data set “cells” turned out to be 7.92 µM.
The matching figures for `C[C@@H]1O[C@@H](O[C@H]2[C@H](O[C@H]3CC[C@]4(C)[C@H]5CC=C6[C@@H]7CC(C)(C)CC[C@]7(C=O)CC[C@@]6(C)[C@]5(C)CC[C@H]4C3(C)C)O[C@H](CO)[C@@H](O[C@@H]3O[C@@H](C)[C@H](O)[C@@H](O)[C@H]3O)[C@@H]2O)[C@H](O)[C@H](O)[C@H]1O`: 21.1 µM, 2.5 and 8.58 µM.
The matching figures for `CCOC(=O)[C@]12CCC(C)(C)C[C@H]1C1=CC[C@@H]3[C@@]4(C)CC[C@H](O[C@@H]5O[C@H](CO)[C@@H](O[C@@H]6O[C@@H](C)[C@H](O)[C@@H](O)[C@H]6O)[C@H](O)[C@H]5O[C@@H]5O[C@@H](C)[C@H](O)[C@@H](O)[C@H]5O)C(C)(C)[C@@H]4CC[C@@]3(C)[C@]1(C)CC2`: 37.4 µM, 7.2 and 5.2 µM.
The matching figures for `COC(=O)[C@]12CCC(C)(C)C[C@H]1C1=CC[C@@H]3[C@@]4(C)CC[C@@H](O[C@@H]5O[C@H](CO)[C@@H](O[C@@H]6O[C@@H](C)[C@H](O)[C@@H](O)[C@H]6O)[C@H](O)[C@H]5O[C@@H]5O[C@@H](C)[C@H](O)[C@@H](O)[C@H]5O)C(C)(C)[C@@H]4CC[C@@]3(C)[C@]1(C)CC2`: greater than 200 µM, greater than 38 and 5.26 µM.
Turning to `CCN(CC)C(=O)[C@]12CCC(C)(C)C[C@H]1C1=CC[C@@H]3[C@@]4(C)CC[C@H](O[C@@H]5O[C@H](CO)[C@@H](O[C@@H]6O[C@@H](C)[C@H](O)[C@@H](O)[C@H]6O)[C@H](O)[C@H]5O[C@@H]5O[C@@H](C)[C@H](O)[C@@H](O)[C@H]5O)C(C)(C)[C@@H]4CC[C@@]3(C)[C@]1(C)CC2`, the CC50 at 48 h in data set [1] was found to be 69 µM. For the same compound, the “Ratio CC50/IC50” value in data set [2] is on record as 27.8. Moreover, in “cells”, the midpoint of inhibition, the IC50, lay at 2.48 µM.
As to `CC1(C)CC[C@]2(C(=O)O)CC[C@]3(C)C(=CC[C@@H]4[C@@]5(C)CC[C@H](O)C(C)(C)[C@@H]5CC[C@]43C)[C@@H]2C1` [OLEANOLIC_ACID], the CC50 at 48 h in data set [1] was found to be 23.1 µM. Further, the “Ratio CC50/IC50” value in data set [2] is less than 1. This compound had an IC50 in “cells” greater than 50 µM.
The matching figures for `C[C@@H]1O[C@@H](O[C@H]2[C@H](O[C@H]3CC[C@]4(C)[C@H]5CC=C6[C@@H]7CC(C)(C)CC[C@]7(C(=O)OC7CCCC7)CC[C@@]6(C)[C@]5(C)CC[C@H]4C3(C)C)O[C@H](CO)[C@@H](O[C@@H]3O[C@@H](C)[C@H](O)[C@@H](O)[C@H]3O)[C@@H]2O)[C@H](O)[C@H](O)[C@H]1O`: 58.2 µM, 12.1 and 4.8 µM.
As for `CCCCCOC(=O)[C@]12CCC(C)(C)C[C@H]1C1=CC[C@@H]3[C@@]4(C)CC[C@H](O[C@@H]5O[C@H](CO)[C@@H](O[C@@H]6O[C@@H](C)[C@H](O)[C@@H](O)[C@H]6O)[C@H](O)[C@H]5O[C@@H]5O[C@@H](C)[C@H](O)[C@@H](O)[C@H]5O)C(C)(C)[C@@H]4CC[C@@]3(C)[C@]1(C)CC2`, the CC50 at 48 h in data set [1] is 45.2 µM. For the same compound, the “Ratio CC50/IC50” value in data set [2] was 6.9. In addition, it took 6.52 µM to reach half-maximal inhibition in the data set “cells” (IC50).
Consider `COC(=O)[C@]12CCC(C)(C)C[C@H]1C1=CC[C@@H]3[C@@]4(C)CC[C@H](O[C@@H]5O[C@H](CO)[C@@H](O[C@@H]6O[C@@H](C)[C@H](O)[C@@H](O)[C@H]6O)[C@H](O)[C@H]5O[C@@H]5O[C@@H](C)[C@H](O)[C@@H](O)[C@H]5O)C(C)(C)[C@@H]4CC[C@@]3(C)[C@]1(C)CC2`, for which the “Ratio CC50/IC50” value in data set [2] is 3.6. Further, the IC50 in the data set “cells” came out at 4.74 µM.
In the case of `C[C@@H]1O[C@@H](O[C@H]2[C@H](O[C@H]3CC[C@]4(C)[C@H]5CC=C6[C@@H]7CC(C)(C)CC[C@]7(C(=O)N(C)C)CC[C@@]6(C)[C@]5(C)CC[C@H]4C3(C)C)O[C@H](CO)[C@@H](O[C@@H]3O[C@@H](C)[C@H](O)[C@@H](O)[C@H]3O)[C@@H]2O)[C@H](O)[C@H](O)[C@H]1O`, in data set [1], the CC50 at 48 h came out at 70 µM. Besides, the Activity result in data set [3] and in data set [5] was “Dose-dependent effect” each time. The Kd turned out to be 0.00446 µM in data set [4] and 0.0112 µM in data set [6]. In addition, the “Ratio CC50/IC50” value in data set [2] stood at 29.7. Besides, in “cells”, the IC50 came out at 2.36 µM.
Take `C[C@@H]1O[C@@H](O[C@H]2[C@H](O[C@H]3CC[C@]4(C)[C@H]5CC=C6[C@@H]7CC(C)(C)CC[C@]7(C(=O)O)CC[C@@]6(C)[C@]5(C)CC[C@H]4C3(C)C)O[C@H](CO)[C@@H](O[C@@H]3O[C@@H](C)[C@H](O)[C@@H](O)[C@H]3O)[C@@H]2O)[C@H](O)[C@H](O)[C@H]1O`: in data set [1], the CC50 at 48 h came to 18.7 µM. Also, in data set [2], the “Ratio CC50/IC50” value was 2. Moreover, half-maximal inhibition in “cells” (IC50) required 9.39 µM.

The values are drawn from ChEMBL document CHEMBL3856183, “Structure-activity relationships of 3-O-β-chacotriosyl oleanane-type triterpenoids as potential H5N1 entry inhibitors” (Eur J Med Chem, 2016).
